{"source": "paper PMC6429214", "about": "“Design, Synthesis and Biological Evaluation of Isoxazole-Based CK1 Inhibitors Modified with Chiral Pyrrolidine Scaffolds” (Molecules, 2019)", "experiment_in_all_cases": "33PanQinase panel", "format_in_all_cases": "biochemical", "key": {"[1]": {"biological_target": "T1, ACV-RL1 (Homo sapiens, UniProt P37023)", "T1 construct": "purchased ProQinase", "T1 sequence (P37023 22-503)": "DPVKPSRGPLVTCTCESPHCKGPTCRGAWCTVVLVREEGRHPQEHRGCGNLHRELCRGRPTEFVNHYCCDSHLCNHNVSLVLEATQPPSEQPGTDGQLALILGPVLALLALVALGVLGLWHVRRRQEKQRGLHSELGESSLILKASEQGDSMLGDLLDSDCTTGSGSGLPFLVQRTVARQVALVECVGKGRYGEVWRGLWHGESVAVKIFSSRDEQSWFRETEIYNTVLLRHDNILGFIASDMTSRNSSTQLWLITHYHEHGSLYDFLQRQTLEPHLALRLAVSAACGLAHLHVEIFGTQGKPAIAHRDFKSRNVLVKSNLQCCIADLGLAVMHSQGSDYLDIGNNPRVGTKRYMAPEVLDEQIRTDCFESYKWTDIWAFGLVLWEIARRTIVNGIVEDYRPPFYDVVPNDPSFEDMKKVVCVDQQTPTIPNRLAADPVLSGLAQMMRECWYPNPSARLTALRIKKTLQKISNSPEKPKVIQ", "details": "ACV-RL1, 1 µM; read-out: Residual Activity (%)", "outline": "(§1)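 Measured value: residual activity (%) vs DMSO. Conditions: 1 µM compound, 1% DMSO, radiometric 33PanQinase format, 320 wild-type kinase panel.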"}, "[2]": {"biological_target": "T2, AMPK-alpha1 aa1-550 (Homo sapiens, UniProt Q13131)", "T2 construct": "purchased ProQinase", "T2 sequence (Q13131 10-559 limits assumed)": "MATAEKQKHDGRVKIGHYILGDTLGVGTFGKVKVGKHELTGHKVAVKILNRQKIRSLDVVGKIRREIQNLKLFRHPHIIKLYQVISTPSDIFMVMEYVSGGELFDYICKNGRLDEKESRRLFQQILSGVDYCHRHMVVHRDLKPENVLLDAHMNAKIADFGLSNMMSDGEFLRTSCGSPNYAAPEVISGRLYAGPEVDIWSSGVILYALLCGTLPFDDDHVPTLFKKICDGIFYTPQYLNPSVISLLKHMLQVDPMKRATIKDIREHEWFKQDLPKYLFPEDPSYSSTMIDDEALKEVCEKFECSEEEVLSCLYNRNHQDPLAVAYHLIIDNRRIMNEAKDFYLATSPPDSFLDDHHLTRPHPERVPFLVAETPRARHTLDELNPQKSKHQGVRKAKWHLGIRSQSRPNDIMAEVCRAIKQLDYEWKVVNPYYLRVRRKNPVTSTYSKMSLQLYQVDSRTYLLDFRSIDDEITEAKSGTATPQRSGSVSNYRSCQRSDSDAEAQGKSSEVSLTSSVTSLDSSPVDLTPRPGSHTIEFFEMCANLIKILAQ", "details": "AMPK-alpha1 aa1-550, 1 µM; read-out: Residual Activity (%)", "outline": "as §1"}, "[3]": {"biological_target": "T3, CAMKK2 (Homo sapiens, UniProt Q96RR4)", "T3 construct": "purchased ProQinase", "details": "CAMKK2, 1 µM; read-out: Residual Activity (%)", "outline": "as §1"}, "[4]": {"biological_target": "T4, CK1-gamma2 (Homo sapiens, UniProt P78368)", "T4 construct": "purchased ProQinase", "details": "CK1-gamma2, 1 µM; read-out: Residual Activity (%)", "outline": "as §1"}, "[5]": {"biological_target": "T5, DYRK2 (Homo sapiens, UniProt Q92630)", "T5 construct": "purchased ProQinase", "details": "DYRK2, 1 µM; read-out: Residual Activity (%)", "outline": "as §1"}, "[6]": {"biological_target": "T6, EPHA5 (Homo sapiens, UniProt P54756)", "T6 construct": "purchased ProQinase", "details": "EPHA5, 1 µM; read-out: Residual Activity (%)", "outline": "as §1"}, "[7]": {"biological_target": "T7, ERK2 (Homo sapiens, UniProt P28482)", "T7 construct": "purchased ProQinase", "details": "ERK2, 1 µM; read-out: Residual Activity (%)", "outline": "as §1"}, "[8]": {"biological_target": "T8, GSK3-beta (Homo sapiens, UniProt P49841)", "T8 construct": "purchased ProQinase", "details": "read-out: Residual Activity (%)", "outline": "as §1"}, "[9]": {"biological_target": "T9, IKK-beta (Homo sapiens, UniProt O14920)", "T9 construct": "purchased ProQinase", "details": "read-out: Residual Activity (%)", "outline": "as §1"}, "[10]": {"biological_target": "T10, JNK3 (Homo sapiens, UniProt P53779)", "T10 construct": "purchased ProQinase", "details": "JNK3, 1 µM; read-out: Residual Activity (%)", "outline": "as §1"}, "[11]": {"biological_target": "T11, MAPKAPK5 (Homo sapiens, UniProt Q8IW41)", "T11 construct": "purchased ProQinase", "details": "MAPKAPK5, 1 µM; read-out: Residual Activity (%)", "outline": "as §1"}, "[12]": {"biological_target": "T12, MATK (Homo sapiens, UniProt P42679)", "T12 construct": "purchased ProQinase", "details": "read-out: Residual Activity (%)", "outline": "as §1"}, "[13]": {"biological_target": "T13, MST2 (Homo sapiens, UniProt Q13188)", "T13 construct": "purchased ProQinase", "details": "MST2, 1 µM; read-out: Residual Activity (%)", "outline": "as §1"}, "[14]": {"biological_target": "T14, MST3 (Homo sapiens, UniProt Q9Y6E0)", "T14 construct": "purchased ProQinase", "details": "MST3, 1 µM; read-out: Residual Activity (%)", "outline": "as §1"}, "[15]": {"biological_target": "T15, MYLK2 (Homo sapiens, UniProt Q9H1R3)", "T15 construct": "purchased ProQinase", "details": "MYLK2, 1 µM; read-out: Residual Activity (%)", "outline": "as §1"}, "[16]": {"biological_target": "T16, PIM3 (Homo sapiens, UniProt Q86V86)", "T16 construct": "purchased ProQinase", "details": "PIM3, 1 µM; read-out: Residual Activity (%)", "outline": "as §1"}, "[17]": {"biological_target": "T17, PKA (Homo sapiens, UniProt P17612)", "T17 construct": "purchased ProQinase", "details": "read-out: Residual Activity (%)", "outline": "as §1"}, "[18]": {"biological_target": "T18, PKC-delta (Homo sapiens, UniProt Q05655)", "T18 construct": "purchased ProQinase", "details": "read-out: Residual Activity (%)", "outline": "as §1"}, "[19]": {"biological_target": "T19, PLK1 (Homo sapiens, UniProt P53350)", "T19 construct": "purchased ProQinase", "details": "PLK1, 1 µM; read-out: Residual Activity (%)", "outline": "as §1"}, "[20]": {"biological_target": "T20, RAF1 Y340D/Y341D (untagged)** (Homo sapiens, UniProt P04049, Y340D/Y341D)", "T20 construct": "purchased ProQinase", "T20 sequence (P04049 307-648 Y340D/Y341D limits assumed)": "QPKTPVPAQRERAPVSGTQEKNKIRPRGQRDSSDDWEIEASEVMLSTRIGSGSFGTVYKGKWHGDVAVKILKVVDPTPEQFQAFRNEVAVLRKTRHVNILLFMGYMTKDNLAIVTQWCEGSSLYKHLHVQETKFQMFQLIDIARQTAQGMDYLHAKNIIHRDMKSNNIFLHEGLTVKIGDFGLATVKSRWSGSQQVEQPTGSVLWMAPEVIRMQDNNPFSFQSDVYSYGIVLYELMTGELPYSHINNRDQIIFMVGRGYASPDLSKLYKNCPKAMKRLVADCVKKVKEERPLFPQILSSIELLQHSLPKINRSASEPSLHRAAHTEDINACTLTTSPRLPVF", "details": "read-out: Residual Activity (%)", "outline": "as §1"}, "[21]": {"biological_target": "T21, RPS6KA1 (Homo sapiens, UniProt Q15418)", "T21 construct": "purchased ProQinase", "T21 sequence (Q15418 whole entry)": "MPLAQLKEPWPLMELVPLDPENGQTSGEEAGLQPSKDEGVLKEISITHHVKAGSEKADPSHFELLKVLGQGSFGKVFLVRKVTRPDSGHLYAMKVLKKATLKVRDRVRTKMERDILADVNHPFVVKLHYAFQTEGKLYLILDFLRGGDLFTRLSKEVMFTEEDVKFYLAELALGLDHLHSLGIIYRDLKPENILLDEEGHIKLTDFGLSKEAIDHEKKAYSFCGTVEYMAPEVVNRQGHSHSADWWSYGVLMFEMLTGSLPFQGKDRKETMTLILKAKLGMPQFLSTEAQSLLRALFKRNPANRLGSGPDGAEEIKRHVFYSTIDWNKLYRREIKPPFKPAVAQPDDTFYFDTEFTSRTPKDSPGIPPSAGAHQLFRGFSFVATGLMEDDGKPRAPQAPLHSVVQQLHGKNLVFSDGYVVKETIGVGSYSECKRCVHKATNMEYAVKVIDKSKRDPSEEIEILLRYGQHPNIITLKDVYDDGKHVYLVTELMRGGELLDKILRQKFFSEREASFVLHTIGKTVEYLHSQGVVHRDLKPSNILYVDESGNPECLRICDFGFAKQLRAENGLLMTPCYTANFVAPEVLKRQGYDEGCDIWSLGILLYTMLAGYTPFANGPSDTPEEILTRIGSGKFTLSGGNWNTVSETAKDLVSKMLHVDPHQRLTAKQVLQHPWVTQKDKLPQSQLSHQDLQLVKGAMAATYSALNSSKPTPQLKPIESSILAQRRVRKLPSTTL", "details": "RPS6KA1, 1 µM; read-out: Residual Activity (%)", "outline": "as §1"}, "[22]": {"biological_target": "T22, RPS6KA3 (Homo sapiens, UniProt P51812)", "T22 construct": "purchased ProQinase", "T22 sequence (P51812 whole entry)": "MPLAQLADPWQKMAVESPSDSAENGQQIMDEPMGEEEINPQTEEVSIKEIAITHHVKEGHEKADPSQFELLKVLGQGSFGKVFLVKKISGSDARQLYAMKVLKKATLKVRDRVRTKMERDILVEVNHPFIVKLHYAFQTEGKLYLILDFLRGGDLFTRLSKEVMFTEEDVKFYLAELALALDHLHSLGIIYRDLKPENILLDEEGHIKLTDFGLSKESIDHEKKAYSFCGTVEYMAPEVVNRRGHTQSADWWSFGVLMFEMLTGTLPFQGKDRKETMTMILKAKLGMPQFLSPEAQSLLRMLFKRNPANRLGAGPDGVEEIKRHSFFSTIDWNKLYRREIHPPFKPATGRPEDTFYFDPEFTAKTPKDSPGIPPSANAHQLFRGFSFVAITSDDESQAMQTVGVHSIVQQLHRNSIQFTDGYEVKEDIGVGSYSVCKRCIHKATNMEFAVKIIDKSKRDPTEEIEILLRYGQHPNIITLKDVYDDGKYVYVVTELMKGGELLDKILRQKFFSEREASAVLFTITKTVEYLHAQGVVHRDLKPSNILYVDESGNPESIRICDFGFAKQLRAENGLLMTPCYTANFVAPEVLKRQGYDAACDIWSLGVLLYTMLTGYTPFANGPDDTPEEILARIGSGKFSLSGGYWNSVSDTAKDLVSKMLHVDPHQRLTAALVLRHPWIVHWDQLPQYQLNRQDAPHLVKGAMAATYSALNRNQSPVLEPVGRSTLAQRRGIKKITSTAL", "details": "RPS6KA3, 1 µM; read-out: Residual Activity (%)", "outline": "as §1"}, "[23]": {"biological_target": "T23, SGK1 (Homo sapiens, UniProt O00141)", "T23 construct": "purchased ProQinase", "T23 sequence (O00141 whole entry)": "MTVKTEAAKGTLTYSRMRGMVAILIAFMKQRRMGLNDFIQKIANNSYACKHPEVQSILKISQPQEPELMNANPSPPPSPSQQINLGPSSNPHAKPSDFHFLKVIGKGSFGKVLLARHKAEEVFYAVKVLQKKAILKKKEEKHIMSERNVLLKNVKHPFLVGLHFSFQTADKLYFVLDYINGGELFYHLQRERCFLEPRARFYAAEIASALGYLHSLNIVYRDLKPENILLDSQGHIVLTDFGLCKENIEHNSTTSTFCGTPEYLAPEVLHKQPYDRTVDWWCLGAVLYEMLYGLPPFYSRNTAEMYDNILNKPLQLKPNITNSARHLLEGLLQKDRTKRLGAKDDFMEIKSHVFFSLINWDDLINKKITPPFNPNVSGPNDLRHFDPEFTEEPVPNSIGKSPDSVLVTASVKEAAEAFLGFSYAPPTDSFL", "details": "SGK1, 1 µM; read-out: Residual Activity (%)", "outline": "as §1"}, "[24]": {"biological_target": "T24, SNARK (Homo sapiens, UniProt Q9H093)", "T24 construct": "purchased ProQinase", "details": "read-out: Residual Activity (%)", "outline": "as §1"}, "[25]": {"biological_target": "T25, STK17A (Homo sapiens, UniProt Q9UEE5)", "T25 construct": "purchased ProQinase", "T25 sequence (Q9UEE5 whole entry)": "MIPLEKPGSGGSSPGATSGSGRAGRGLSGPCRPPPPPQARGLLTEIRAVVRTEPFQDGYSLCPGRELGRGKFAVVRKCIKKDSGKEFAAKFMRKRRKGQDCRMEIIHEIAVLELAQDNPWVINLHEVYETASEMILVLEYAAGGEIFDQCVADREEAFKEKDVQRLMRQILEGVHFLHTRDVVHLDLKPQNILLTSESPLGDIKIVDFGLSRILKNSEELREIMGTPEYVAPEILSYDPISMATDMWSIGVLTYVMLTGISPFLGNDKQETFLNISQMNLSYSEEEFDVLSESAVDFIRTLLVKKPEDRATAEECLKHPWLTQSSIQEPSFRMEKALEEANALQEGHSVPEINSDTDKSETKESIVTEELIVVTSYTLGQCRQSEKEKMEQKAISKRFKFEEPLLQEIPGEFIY", "details": "read-out: Residual Activity (%)", "outline": "as §1"}, "[26]": {"biological_target": "T26, TSK2 (Homo sapiens, UniProt Q96PF2)", "T26 construct": "purchased ProQinase", "details": "TSK2, 1 µM; read-out: Residual Activity (%)", "outline": "as §1"}, "[27]": {"biological_target": "T27, TSSK1 (Homo sapiens, UniProt Q9BXA7)", "T27 construct": "purchased ProQinase", "T27 sequence (Q9BXA7 whole entry)": "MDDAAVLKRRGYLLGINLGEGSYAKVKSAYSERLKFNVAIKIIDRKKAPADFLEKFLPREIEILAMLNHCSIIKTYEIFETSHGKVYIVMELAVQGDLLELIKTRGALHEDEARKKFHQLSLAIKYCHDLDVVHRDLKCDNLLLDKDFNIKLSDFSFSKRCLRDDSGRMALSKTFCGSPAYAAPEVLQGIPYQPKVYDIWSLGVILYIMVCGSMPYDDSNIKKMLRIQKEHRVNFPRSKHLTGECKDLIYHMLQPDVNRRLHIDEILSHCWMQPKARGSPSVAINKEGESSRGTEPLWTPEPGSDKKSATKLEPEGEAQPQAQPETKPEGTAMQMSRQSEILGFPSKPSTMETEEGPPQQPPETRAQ", "details": "TSSK1, 1 µM; read-out: Residual Activity (%)", "outline": "as §1"}, "[28]": {"biological_target": "T28, TTK (Homo sapiens, UniProt P33981)", "T28 construct": "purchased ProQinase", "T28 sequence (P33981 whole entry)": "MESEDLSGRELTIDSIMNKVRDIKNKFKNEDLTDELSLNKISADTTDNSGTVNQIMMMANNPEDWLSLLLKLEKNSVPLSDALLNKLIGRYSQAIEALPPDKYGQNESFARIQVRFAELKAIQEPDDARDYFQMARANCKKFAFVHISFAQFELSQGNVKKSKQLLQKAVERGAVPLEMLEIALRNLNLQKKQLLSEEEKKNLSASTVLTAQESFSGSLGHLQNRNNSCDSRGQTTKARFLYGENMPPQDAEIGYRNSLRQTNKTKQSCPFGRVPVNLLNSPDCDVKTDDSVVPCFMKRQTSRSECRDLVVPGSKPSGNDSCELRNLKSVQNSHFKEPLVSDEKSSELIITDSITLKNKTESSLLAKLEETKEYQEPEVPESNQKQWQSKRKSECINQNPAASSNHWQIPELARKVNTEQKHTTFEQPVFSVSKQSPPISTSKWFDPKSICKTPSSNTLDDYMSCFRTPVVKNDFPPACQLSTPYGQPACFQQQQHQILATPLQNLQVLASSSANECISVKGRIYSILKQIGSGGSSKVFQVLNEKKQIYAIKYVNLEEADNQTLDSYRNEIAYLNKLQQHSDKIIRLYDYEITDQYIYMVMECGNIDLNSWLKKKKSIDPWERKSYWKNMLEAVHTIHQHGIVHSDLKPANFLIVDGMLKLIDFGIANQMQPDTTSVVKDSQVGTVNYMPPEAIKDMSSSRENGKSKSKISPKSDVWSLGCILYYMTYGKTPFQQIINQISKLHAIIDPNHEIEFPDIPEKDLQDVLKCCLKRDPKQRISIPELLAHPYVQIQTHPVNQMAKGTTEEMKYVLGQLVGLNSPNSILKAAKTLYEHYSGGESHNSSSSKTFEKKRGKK", "details": "read-out: Residual Activity (%)", "outline": "as §1"}, "[29]": {"biological_target": "T29, ZAP70 (Homo sapiens, UniProt P43403)", "T29 construct": "purchased ProQinase", "details": "ZAP70, 1 µM; read-out: Residual Activity (%)", "outline": "as §1"}}, "data": [{"compound": "COc1ccc(-c2cc(C(=O)Nc3cc(-c4c(-c5ccc(F)cc5)noc4C(C)C)ccn3)n(CC3NCC(O)C3O)c2)cc1", "note": "(centres unmarked) [29d]", "values": [{"measurement": "remaining activity at 1 µM", "setting": "[1]", "result": 115, "unit": "%"}, {"measurement": "remaining activity at 1 µM", "setting": "[2]", "result": 99, "unit": "%"}, {"measurement": "remaining activity at 1 µM", "setting": "[3]", "result": 97, "unit": "%"}, {"measurement": "remaining activity at 1 µM", "setting": "[4]", "result": 80, "unit": "%"}, {"measurement": "remaining activity at 1 µM", "setting": "[5]", "result": 96, "unit": "%"}, {"measurement": "remaining activity at 1 µM", "setting": "[6]", "result": 103, "unit": "%"}, {"measurement": "remaining activity at 1 µM", "setting": "[7]", "result": 104, "unit": "%"}, {"measurement": "remaining activity at 1 µM", "setting": "[8]", "result": 100, "unit": "%"}, {"measurement": "remaining activity at 1 µM", "setting": "[9]", "result": 92, "unit": "%"}, {"measurement": "remaining activity at 1 µM", "setting": "[10]", "result": 15, "unit": "%"}, {"measurement": "remaining activity at 1 µM", "setting": "[11]", "result": 110, "unit": "%"}, {"measurement": "remaining activity at 1 µM", "setting": "[12]", "result": 167, "unit": "%"}, {"measurement": "remaining activity at 1 µM", "setting": "[13]", "result": 85, "unit": "%"}, {"measurement": "remaining activity at 1 µM", "setting": "[14]", "result": 117, "unit": "%"}, {"measurement": "remaining activity at 1 µM", "setting": "[15]", "result": 97, "unit": "%"}, {"measurement": "remaining activity at 1 µM", "setting": "[16]", "result": 98, "unit": "%"}, {"measurement": "remaining activity at 1 µM", "setting": "[17]", "result": 96, "unit": "%"}, {"measurement": "remaining activity at 1 µM", "setting": "[18]", "result": 100, "unit": "%"}, {"measurement": "remaining activity at 1 µM", "setting": "[19]", "result": 98, "unit": "%"}, {"measurement": "remaining activity at 1 µM", "setting": "[20]", "result": 103, "unit": "%"}, {"measurement": "remaining activity at 1 µM", "setting": "[21]", "result": 84, "unit": "%"}, {"measurement": "remaining activity at 1 µM", "setting": "[22]", "result": 107, "unit": "%"}, {"measurement": "remaining activity at 1 µM", "setting": "[23]", "result": 102, "unit": "%"}, {"measurement": "remaining activity at 1 µM", "setting": "[24]", "result": 123, "unit": "%"}, {"measurement": "remaining activity at 1 µM", "setting": "[25]", "result": 102, "unit": "%"}, {"measurement": "remaining activity at 1 µM", "setting": "[26]", "result": 99, "unit": "%"}, {"measurement": "remaining activity at 1 µM", "setting": "[27]", "result": 109, "unit": "%"}, {"measurement": "remaining activity at 1 µM", "setting": "[28]", "result": 100, "unit": "%"}, {"measurement": "remaining activity at 1 µM", "setting": "[29]", "result": 116, "unit": "%"}]}]}
